Molecules are shown by their SMILES.

Test [1] concerns human colon cancer cell COLO205. Briefly: Cytotoxicity assay, MTT staining. The test is classed as cell-based. Particulars: COLO 205, COLO205, 10 nM, 48 h. The protocol:
(§1) Cytotoxicity assay of PEGylated irinotecan E10-1 (wherein the polyethylene glycol component is derived from E4-1) was performed using MTT staining. A blank control group containing no drugs but only culture medium, a positive control group containing irinotecan, and an experimental group containing PEGylated irinotecan (E10-1) were respectively set up. The drug concentration of the positive control group and experimental group was 10 nM, with 6 replicate wells each, and the assay was repeated three times. Six types of cancer cells were selected as in vitro cancer cell models: human colon cancer cell COLO205, human colon adenocarcinoma cell HT29, human lung adenocarcinoma cell A549, pancreatic cancer cell MiaPaCa-2, human ovarian cancer cell A2780, and human ovarian adenocarcinoma cell OVCAR-3.
(§2) Cells were inoculated onto a 96-well plate at a density of 1×10^4 cells/well, with 100 µL of cell suspension added to each well. After the inoculation, the cells were incubated in a cell culture incubator at 37°C, 4% CO2 for 24 h. The old culture medium was aspirated, and then 100 µL of culture medium containing 10 nM E10-1 was added to each experimental group, 100 µL of culture medium containing 10 nM irinotecan was added to each positive control group, and 100 µL of fresh culture medium was added to the blank control group. After further incubation for 48 h, 20 µL of 5 mg/mL MTT in PBS buffer was added to each well. After incubating the cancer cells with MTT for 4 h, the mixture of culture medium and MTT buffer was aspirated, and then DMSO (150 µL/well) was added to dissolve the blue-purple crystalline product of formazan in viable cells. The 96-well plate was gently shaken until the crystalline product was fully dissolved, and then a microplate reader was used to measure the absorbance at 490 nm. [formula]

Test [2] deals with human ovarian adenocarcinoma cell OVCAR-3. As to the kind of experiment: Cytotoxicity assay, MTT staining. Format: cell-based. As to conditions: OVCAR-3, 10 nM, 48 h. The protocol: as §1, §2
In test [3] the test system is human ovarian cancer cell A2780. As to the kind of experiment: Cytotoxicity assay, MTT staining. The test is classed as cell-based. As to conditions: A2780, 10 nM, 48 h. The protocol: as §1, §2
Test [4] concerns human colon adenocarcinoma cell HT29. As to the kind of experiment: Cytotoxicity assay, MTT staining. Format: cell-based. As to conditions: HT-29, HT29, 10 nM, 48 h. On the procedure:
as §1, §2

For test [5], the system named is pancreatic cancer cell MiaPaCa-2. As to the kind of experiment: Cytotoxicity assay, MTT staining. Format: cell-based. As to conditions: Homo sapiens, MIA PaCa-2, MiaPaCa-2, 10 nM, 48 h. On the procedure:
as §1, §2

In test [6] the test system is human lung adenocarcinoma cell A549. Briefly: Cytotoxicity assay, MTT staining. The test is classed as cell-based. Particulars: A549, 10 nM, 48 h. On the procedure:
as §1, §2

The test system of test [7] is H22 mouse liver cancer cells. Briefly: Anti-tumor efficacy in vivo (transplanted solid tumor, tumor weight). As to conditions: H22 subcutaneous tumor in mice, tail vein injection on days 2 and 7 post-inoculation, tumors weighed after 2 weeks of administration. On the procedure: The transplantation of animal tumors was adopted as the experimental method, with 6 mice per group, and H22 mouse liver cancer cells were inoculated subcutaneously into the right axilla of the mice to form solid tumors. Single-dose administrations via tail vein injection were performed on days 2 and 7 post-inoculation, respectively. After 2 weeks of administration, the mice were sacrificed via cervical dislocation, and the tumors were excised and weighed. Tumor Inhibition Rate = [G-H/G]*100% (G represents the average tumor weight of the blank control group, H represents the average tumor weight of the treatment group). Table 4. Results of Anti-tumor Effect

In the case of `CCc1c2c(nc3ccc(OC(=O)N4CCC(N5CCCCC5)CC4)cc13)-c1cc3c(c(=O)n1C2)COC(=O)[C@]3(O)CC` [irinotecan], the viability at 0.01 µM in test [1] amounted to 76%; in test [2] it was 75%; in test [3], 73%; in test [4], 74%; in test [5], 76%; in test [6], 70%. The “Tumor Inhibition Rate” value in test [7] came out at 30.3%.
